Source: patent US7419655B2, “Skin care products” (Kimberly-Clark Worldwide, Inc., priority 2002, dated 2008)
Entries after “also recorded” stand apart in the source; their conditions may differ.

Key:
[1] = tested on: human skin fibroblast cell line (normal human dermal fibroblasts, neonatal); assay: Fibroblast proliferative response, 96-well Cell Titer 96 Aqueous One assay (Example 1, FIG. 1, Table 1); type: cell-based; conditions: for Mean (spectrophotometric absorbance at 490 nm) / Median (spectrophotometric absorbance at 490 nm): 28 hours incubation, n=5, Table 1; for cell growth / cell density (OD), FIG. 1: control OD about 0.6
Method: A human skin fibroblast cell line was obtained from Clonetics (Walkersville, Md., normal human dermal fibroblasts, neonatal). Stock solutions of CNA were prepared with chitosan (0.0297M, degree of deacetylation 78.8%, Vanson Inc.) and equimolar amounts of ascorbic acid and niacinamide (0.01649M, Sigma Chemical Co.) in water. Test solutions of chitosan (0.0297M) and niacinamide ascorbate (0.01649M) were separately prepared. All the compounds were tested at two doses, 5 and 10 ul with n=5. DMEM was used as a negative control (n=5). The proliferative response of CNA, chitosan and NA, on the human skin fibroblast cell was measured in a 96-well assay system using serum-free DMEM (Dulbecco's Modified Eagle's Medium, Sigma Chemical Co.) as a control. Cells were seeded into 96 well plates at a concentration of 1×10^3 cells in 100 μl of DMEM containing 10% fetal bovine serum (FBS, Sigma Chemical Co., St. Louis, Mo.). Plates were incubated for 24 hours at 37° C. in a humidified 5% CO2 atmosphere. After incubation, the medium was aspirated and the wells were rinsed twice with 100 μl of serum-free DMEM. The final rinse was aspirated and 100 ul DMEM serum was added to each well before adding test compounds. All wells were incubated for 28 hours at 37° C. in a humidified, 5% CO2 atmosphere. After incubation, 20 μl of Cell Titer 96 Aqueous One Solution (Promega) was added to all wells. The plates were swirled gently and placed back in the incubator for 90 minutes and spectrophotometric absorbance was read at 490 nm. Statistical analysis of data was performed by using one-way ANOVA. P<0.05 is considered significant while P<0.001 is considered as very very significant.

[2] = tested on: human skin fibroblast cell line (normal human dermal fibroblasts, neonatal); assay: Fibroblast proliferative response, 96-well Cell Titer 96 Aqueous One assay (Example 2, FIG. 2, Table 2); type: cell-based; conditions: for effect on cellular proliferation (in words): 5 and 10 ul, versus serum-free DMEM control, one-way ANOVA; for Mean (spectrophotometric absorbance at 490 nm) / Median (spectrophotometric absorbance at 490 nm): 28 hours incubation, n=5, Table 2
Method: A stock solution of CNA was prepared with chitosan (0.0297M) and equimolar amounts of ascorbic acid and niacinamide (0.01649M) in water. Test solutions of equimolar ascorbic acid and niacinamide (0.01649M) were prepared separately in water. All the compounds were tested at two doses, 5 and 10 ul with n=5. DMEM was used as a negative control (n=5). The proliferative response of CNA, ascorbic acid and niacinamide, on the human skin fibroblast cell line (Clonetics, Walkersville, Md., normal human dermal fibroblasts, neonatal) was measured in a 96-well assay system using serum-free DMEM (Dulbecco's Modified Eagle's Medium, Sigma Chemical Co.) as a control. Cells were seeded into 96 well plates at a concentration of 1×10^2 cells in 100 μl of DMEM containing 10% fetal bovine serum (FBS, Sigma Chemical Co., St. Louis, Mo.). Plates were incubated for 24 hours at 37° C. in a humidified 5% CO2 atmosphere. After incubation, the medium was aspirated and the wells were rinsed twice with 100 μl of serum-free DMEM. The final rinse was aspirated and 100 ul DMEM serum was added to each well before adding test compounds. All wells were incubated for 28 hours at 37° C. in a humidified, 5% CO2 atmosphere. After incubation, 20 μl of Cell Titer 96 Aqueous One Solution (Promega) was added to all wells. The plates were swirled gently and placed back in the incubator for 90 minutes and spectrophotometric absorbance was read at 490 nm. Statistical analysis of data was performed by using one-way ANOVA. P<0.05 is considered significant while P<0.001 is considered as very very significant.

[3] = group suffix 1 (doses were 5 and 10 ul)
[4] = group suffix 2 (doses were 5 and 10 ul)

Compound	effect on fibroblast growth / proliferation (in words) ([1]; 5 and 10 ul, versus serum-free DMEM control, one-way ANOVA)	Mean (spectrophotometric absorbance at 490 nm) ([1]; 5 ul dose)	Median (spectrophotometric absorbance at 490 nm) ([1]; 5 ul dose)	cell growth / cell density (OD), FIG. 1 ([1]; 5 μl)	Mean (spectrophotometric absorbance at 490 nm) ([1]; 10 ul dose)	Median (spectrophotometric absorbance at 490 nm) ([1]; 10 ul dose)	cell growth / cell density (OD), FIG. 1 ([1]; 10 μl)	effect on cellular proliferation (in words) [2]	Mean (spectrophotometric absorbance at 490 nm) [2, 3]	Median (spectrophotometric absorbance at 490 nm) [2, 3]	Mean (spectrophotometric absorbance at 490 nm) [2, 4]	Median (spectrophotometric absorbance at 490 nm) [2, 4]
NC(=O)c1cccnc1.O=C1O[C@H]([C@@H](O)CO)C(O)=C1O [NA, niacinamide ascorbate]	appeared to inhibit cellular growth in a dose dependent manner; also recorded: appears depress fibroblast cell growth	0.5650	0.5630	about 0.58	0.4826	0.4870	about 0.50					
NC(=O)c1cccnc1 [Niacinamide, niacinamide]								did not show any statistical difference	0.3108	0.3140	0.3048	0.3070
O=C1O[C@H]([C@@H](O)CO)C(O)=C1O [Ascorbic acid, ascorbic acid]								some cell proliferating activity	0.4002	0.3990	0.4598	0.4510
